The Kinase Knowledgebase extract (Sharma et al. 2016)

What follows are compounds tested against MAPK14 (human) (UniProt Q16539) (assay: Assessment of MAPK14 Kinase Activity).
Sequence of MAPK14 (human) (Q16539 whole entry, looked up): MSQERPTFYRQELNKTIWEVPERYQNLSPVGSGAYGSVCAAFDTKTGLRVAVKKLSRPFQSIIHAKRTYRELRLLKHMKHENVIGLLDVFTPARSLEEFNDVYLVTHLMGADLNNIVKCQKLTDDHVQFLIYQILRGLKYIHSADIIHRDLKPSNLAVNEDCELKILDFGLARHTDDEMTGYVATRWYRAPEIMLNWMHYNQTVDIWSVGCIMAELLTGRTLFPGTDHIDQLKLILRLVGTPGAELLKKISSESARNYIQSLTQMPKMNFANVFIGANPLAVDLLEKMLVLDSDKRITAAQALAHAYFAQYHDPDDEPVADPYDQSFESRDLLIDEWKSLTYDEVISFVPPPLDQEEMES
For `COc1cccc(-c2nc3sccn3c2-c2ccnc(S(C)(=O)=O)n2)c1`, the IC50 was 10000 nM.
Compound `COc1cccc(-c2nc3sccn3c2-c2nc(SC)ncc2-c2ccccc2)c1` has an IC50 of over 10000 nM.
`CC(C)(C)OC(=O)N1CCC[C@H]1CNc1nccc(-c2c(-c3ccc(F)cc3)nc3sccn23)n1` gave an IC50 of 7.26 nM.
Work on `OCCC(CO)Nc1nccc(-c2c(-c3ccc(F)cc3)nc3sccn23)n1` (configuration not stated) yielded an IC50 of 87.1 nM.
In the case of `CS(=O)(=O)c1nccc(-c2c(-c3ccc(F)c(F)c3)nc3sccn23)n1`, the IC50 is reported as 10000 nM.
In the case of `C[C@@H](O)CNc1nccc(-c2c(-c3ccc(F)cc3)nc3occn23)n1`, the IC50 is reported as 37.1 nM.
With `C[C@@H](CO)Nc1nccc(-c2c(-c3ccc(F)cc3)nc3occn23)n1` the IC50 was 34.8 nM.
With `Fc1ccc(Cl)c(-c2nc3occn3c2-c2ccnc(N[C@@H]3CN4CCC3CC4)n2)c1` the IC50 was 6.8 nM.
`Fc1ccc(-c2nc3sccn3c2-c2ccnc(N3CCCCC3)n2)cc1` was tested, and the IC50 was 527 nM.
In the case of `O[C@@H](CNc1nccc(-c2c(-c3ccc(F)cc3)nc3occn23)n1)c1ccccc1`, the IC50 is reported as 8.96 nM.
With `Cc1ccc(-c2nc3sccn3c2-c2ccnc(S(C)(=O)=O)n2)cc1` the IC50 was 10000 nM.
`CCCCCOc1nccc(-c2c(-c3ccc(F)cc3)nc3sccn23)n1` showed an IC50 of 890 nM.
